These results are taken from patent US9756852B2, “Topical delivery formulation” (MERIAL INC., priority 2014, dated 2017).

Data set [1] in a line: In-lab water resistance (% ML465 removed after water exposure). The data set is classed as physicochemical. As to conditions: for In-lab Water Resistance (% ML465 Removed after Water Exposure (n = 2)): 30% Tributyl acetyl citrate. The method, then: (§1) In-vivo and in-vitro studies were conducted to compare wash-off resistance of formulations prepared with lipophilic solvents and with polymers.
The in-vivo studies of Table 1 were followed with in-vitro studies conducted to assess water resistance of “conventional” solvent systems. Conventional pour-on solvent formulations described below were tested using ML465 as the active under exposure to water for 20 and 40 minutes.
Next, the water resistance of the inventive solvent systems was tested in vitro.

The test system of another data set is horn fly. In words: in-vivo efficacy studies A and B: pour-on formulations for control of horn fly on cows. The arrangement: species or system Haematobia irritans on cows. To be noted: 30% Tributyl acetyl citrate. The method, then:
Although many different actives may work with the formulation of the invention, 1H-pyrazole-3-carbonitrile, 1-[2,6-dichloro-4-(trifluoromethyl)phenyl]-5-methyl-4-[(trifluoromethyl)sulfinyl] (i.e., ML465) is the compound used to test topical formulations for control of horn fly on cows for a duration of one month or longer.
as §1
It can be seen that the amount of ML465 washed off is at, or below, 10% of the applied dose, indicating a sharp decrease upon exposure to water. This was not sufficient to support thirty days efficacy duration. Thus, efficacy may depend on resistance of the solvent system to water exposure.

Take `Cc1c([S+]([O-])C(F)(F)F)c(C#N)nn1-c1c(Cl)cc(C(F)(F)F)cc1Cl` (stereo not shown) [ML465, 1H-pyrazole-3-carbonitrile, 1-[2,6-dichloro-4-(trifluoromethyl)phenyl]-5-methyl-4-[(trifluoromethyl)sulfinyl]]: the “In-lab Water Resistance (% ML465 Removed after Water Exposure (n = 2))” value was determined as 5.2% in data set [1] (20 min, 5% PPG-15 stearyl ether, 6% Isobutene H25, Soybean Oil); 8.8% in data set [1] (20 min, 5% PPG-15 stearyl ether, 10% Isopropyl palmitate, 10% ceteary octanote, 10% butyl stearate, Soybean Oil); 7.5% in data set [1] (20 min, 5% PPG-15 stearyl ether, Soybean oil); 2.4% in data set [1] (20 min, Miglyol 840); 7.3% in data set [1] (40 min, 5% PPG-15 stearyl ether, 6% Isobutene H25, Soybean Oil); 9.2% in data set [1] (40 min, 5% PPG-15 stearyl ether, 10% Isopropyl palmitate, 10% ceteary octanote, 10% butyl stearate, Soybean Oil). Further, the “In-lab Water Resistance (% ML465 Removed after Water Exposure (n = 2))” value in data set [1] (40 min, 5% PPG-15 stearyl ether, Soybean oil) worked out at 10.1%; in data set [1] (40 min, Miglyol 840) it was 5.2%. Further, the “amount of ML465 washed off, % of the applied dose” value in data set [1] (traditional formulations of trials A and B, exposure to water) is not above 10%. The “Duration of above 90% efficacy” value was found to be 17 days with horn fly (study A, 3.0% w/v ML465, Miglyol 840); 17 days in the data set with horn fly (study B, 0.5% w/v ML465, 5% Polypropylene Glycol (15) stearyl ether, Soybean Oil); 17 days in the data set on horn fly (study B, 1.0% w/v ML465, 3% Polypropylene Glycol (15) stearyl ether, 8.5% Isopropyl palmitate, 7% Isobutene H25, Soybean Oil); 24 days in the data set on horn fly (study B, 1.0% w/v ML465, 3% Polypropylene Glycol (15) stearyl ether, 10% Isopropyl palmitate, 7% cetearyl octanoate, 10% butyl stearate, Soybean Oil).
